3 compounds from patent US20230109839A1, “THERAPEUTIC AGENT FOR TAUOPATHIES” (SUMITOMO PHARMA CO., LTD., priority 2020, published 2023) can be followed below.

The test system of assay [1] is phosphorylated tau oligomer. As to the kind of experiment: Evaluation of phosphorylated tau oligomers in brain of APP-Tg mice, Western blotting (Test 4). As to conditions: for reducing effect of tau oligomer: with food for 7-10 days, ABT 1 mg/g-food depending on the compound, brain, anti-oligomerized tau antibody TOMA-1. It is filed as in vivo, mouse. On the procedure:
Test 4: Evaluation of Phosphorylated Tau Oligomers Using APP-Tg Mice
This test is a test to quantify the oligomer of phosphorylated tau in the brain to evaluate the action of a compound. […] The APP-Tg mice used herein were prepared by the method described in Test 3.
The test compound administered with food to APP-Tg mice for 7-10 days. At this time, in order to increase the blood concentration of the test compound, ABT was used in combination with a mixed diet of 1 mg/g-food depending on the compound. After the administration, the brain was collected, and the protein is extracted from the collected brain using TBS (Tris Buffered Saline) or sarcosyl, and then SDS-PAGE (sodium dodecyl sulfate-polyacrylamide gel electrophoresis) of the soluble or insoluble fraction was performed. After that, Western blotting was performed using an anti-oligomerized tau antibody (Anti-Tau, oligomeric, clone TOMA-1), and the effect of the test compound was evaluated by quantifying the band amount of the phosphorylated tau oligomer.
The reducing effect of phosphorylated tau oligomer was calculated by the following formula, and from the calculated values, the results were defined as follows: 0-25%: +, 25-50%: ++, 50-75%: +++, and 75-100%: ++++. The significant difference from the vehicle-administered group was determined using the Student t-test. For the band amount, the value corrected by the β-actin band amount was used.
Reducing effect of phosphorylated tau oligomer={(band amount of oligomerized tau in vehicle-administered group−band amount of oligomerized tau in test compound-administered group)/band amount of oligomerized tau in vehicle-administered group}×100

The next assay deals with rTg4510 mice. As to the kind of experiment: Cerebral atrophy in rTg4510 mice, MRI volume of brain regions (Test 5). It is filed as in vivo, mouse. The following applies: for age-dependent increase in lateral ventricular volume vs non-administration group: mixed diet 3 mg/g-food with ABT 1 mg/g-food; for volume cerebellum / volume cerebral neocortex / volume hippocampus / volume lateral ventricle: 5.8 mg/g-food from the age of 4 months. The text has this: Test 5: Evaluation of Intracerebral Tau Aggregate Accumulation and Cerebral Atrophy Using rTg4510 Mice
This test is a test to evaluate the effects of the compounds on intracerebral tau aggregate accumulation and cerebral atrophy. The rTg4510 mice overexpress the human-type FTDP-17 mutant tau in the forebrain, and month-age-dependent intracerebral tau aggregate accumulation and cerebral atrophy are observed. The rTg4510 mice used herein were produced by mating Tg (tauP301L) 4510 mice (Stock No. 015815) and CaMKII-tTA mice (Stock No. 007004) purchased from The Jackson Laboratory and breeding them.
The test compound was administered as a mixed diet to rTg4510 mice from the age of 4 months, and PET scan and MRI were performed at the ages of 4, 6 and 8 months to quantitatively evaluate the amount of the intracerebral tau aggregate accumulated and cerebral atrophy. The PET scan was performed using MicroPET Focus 220 of Siemens Medical Solutions (0.851 mm thick (intercenter) 95 slices, 19.0 cm axial field of view (FOV), and 7.6 cm intra-section FOV). The administration of radioactive compound [^18F] PM-PBB3 (precursor obtained from Aprinoia) and the PET scan were performed in dimly lit after the mice was treated with 1.5% isoflurane anesthesia to avoid […] of the radioactive compound. The emission scan was performed for 60 minutes immediately after the intravenous administration of [^18F] PM-PBB3 (1 mCi) (3D list mode, energy window: 350-750 keV). Then, the list mode data sorted into 3D synograms were converted into 2D synograms by Fourier-rebinding (frames: 4×1, 8×2 and 8×5 minutes). The dynamic image for 60 minutes after the administration of [^18F] PM-PBB3 was reconstructed by a filter-corrected back projection with a 0.5 mm Hanning filter. Regions of interest (ROI) were set in multiple brain regions using PMOD image analysis software (PMOD Technology) with reference to the MRI templates and the PET reconstructed images. Tau aggregate accumulation was evaluated by calculating SUVR (Standardized uptake value ratio) with the cerebellum as a reference region, based on the added average of dynamic images from 40 minutes to 60 minutes.
The evaluation of cerebral atrophy was performed with horizontal superconducting magnet type MRI (7T, inner diameter 400 mm, self-shielding type, zero boil-off type). The imaging was performed under isoflurane anesthesia while maintaining the rectal temperature at 36.5±0.5° C. After Tripilot acquisition, the brain images were acquired by TurboRARE T2 emphasis sequence (TR: 4200 ms, TE: 36 ms, Fat-Sup: on, NA: 4, RARE factor: 8, scan time: 14 min) (FOV read: 25.6 mm, FOV P1: 14.5 mm, Slice thickness: 0.5 mm, number of slices: 28). The ROI of each brain region was set in each of the acquired slices, and the volume of the brain region was calculated by summing the ROI areas of all the slices to evaluate the effect of the test compound.

Setting [2] is: diet 5.8 mg/g-food from the age of 4 months.

“Also recorded” adds a separate entry of the source.

With `CN(c1ncc2cnn(CC(=O)Nc3ccn4ncnc4c3)c2n1)C1CCCC1` [Example 795, 2-{6-[cyclopentyl(methyl)amino]-1H-pyrazolo[3,4-d]pyrimidin-1-yl}-N-([1,2,4]triazolo[1,5-a]pyridin-7-yl)acetamide], the “Reducing effect of phosphorylated tau oligomer” value in assay [1] (dose 0.2 mg/g-food, 7-10 days, with ABT 1 mg/g-food) is “+ (0-25%: +)”; in assay [1] (dose 2 mg/g-food, 7-10 days, with ABT 1 mg/g-food) it was “+++ (50-75%: +++)”. Besides, the “reducing effect of tau oligomer” value in assay [1] was “some reducing effect of tau oligomer; also recorded: strong reducing effect of tau oligomer”. The “age-dependent increase in lateral ventricular volume vs non-administration group” value in the assay on rTg4510 mice (at the age of 6 months) was “tendency to suppress”; with rTg4510 mice (at the age of 8 months), “not different”.

Turning to `CC1CC=C(c2cnc3cnn(CC(=O)Nc4ccn5ncnc5c4)c3n2)CC1` (stereo not drawn) [Example 577, 2-[6-(4-methylcyclohex-1-en-1-yl)-1H-pyrazolo[3,4-b]pyrazin-1-yl]-N-([1,2,4]triazolo[1,5-a]pyridin-7-yl)acetamide], the inhibition in vivo at 2.2 mg/g-food in assay [1] (Mus musculus, po, dose 2.2 mg/g-food, 7-10 days, without ABT, read-out: Reducing effect of phosphorylated tau oligomer) fell in the range of 0 to 25%. For the same compound, the inhibition in vivo at 6.6 mg/g-food in assay [1] (Mus musculus, po, dose 6.6 mg/g-food, 7-10 days, without ABT, read-out: Reducing effect of phosphorylated tau oligomer) lay within 50 to 75%. Besides, the “reducing effect of tau oligomer” value in assay [1] is recorded as “some reducing effect of tau oligomer; also recorded: strong reducing effect of tau oligomer”. In the assay on rTg4510 mice (mixed diet 0.7 and 6.6 mg/g-food), the “suppression of cerebral atrophy” value is listed as “no suppression”.

Turning to `CC1CCN(c2ccc(=O)n(CC(=O)Nc3ccc(C#N)cc3)n2)CC1` [Example 1, N-(4-Cyanophenyl)-2-[3-(4-methylpiperidin-1-yl)-6-oxopyridazin-1(6H)-yl]acetamide], the “Reducing effect of phosphorylated tau oligomer” value in assay [1] (dose 1.9 mg/g-food, 7-10 days, without ABT) was “+ + +”. Moreover, the “Reducing effect of phosphorylated tau oligomer” value in assay [1] (dose 5.8 mg/g-food, 7-10 days, without ABT) is reported as “+ + + +”. Also, in assay [1], the “reducing effect of tau oligomer” value is “some reducing effect of tau oligomer; also recorded: strong reducing effect of tau oligomer”. Moreover, in the assay with rTg4510 mice (4 month old), the volume cerebellum was 34.3 ± 0.19 mm^3, the volume cerebral neocortex came to 60.1 ± 0.49 mm^3, the volume hippocampus was determined as 14.0 ± 0.13 mm^3 and the volume lateral ventricle turned out to be 0.79 ± 0.014 mm^3. In the assay with rTg4510 mice (6 month old), the volume cerebellum was determined as 33.9 ± 0.18 mm^3, the volume cerebral neocortex is 50.9 ± 0.98 mm^3, the volume hippocampus amounted to 12.6 ± 0.22 mm^3 and the volume lateral ventricle worked out at 1.70 ± 0.312 mm^3. For the same compound, in the assay on rTg4510 mice (8 month old), the volume cerebellum came out at 33.4 ± 0.33 mm^3, the volume cerebral neocortex came to 45.3 ± 1.13 mm^3, the volume hippocampus is 12.7 ± 0.12 mm^3 and the volume lateral ventricle was 0.61 ± 0.036 mm^3. For the same compound, in the assay with rTg4510 mice (setting [2]), the “age-dependent cerebral atrophy in the cerebral neocortex and hippocampus (volume, FIG. 2)” value is recorded as “statistically significantly suppressed”; the “age-dependent increase in the lateral ventricular volume (FIG. 2)” value is recorded as “statistically significantly suppressed”. For the same compound, the “cerebral atrophy and enlargement of the lateral ventricle with aging (T2-weighted images, FIG. 1)” value with rTg4510 mice (diet 5.8 mg/g-food from the age of 4 months, ages 4, 6 and 8 months, vs non-administration group) was “significantly suppressed”.
